Several values for one entry are separate records, joined by “and”; a condition that tells them apart may be missing. Equal entries are not always repeated. Toxic doses and inconclusive results are not listed. The calls were made as follows: active = survival T/C of 150% or more; inactive = T/C below 125% in these data.
System: P388 leukemia ip, CD2F1 mice, survival T/C
Assay: NCI In Vivo Anticancer Drug Screen. Data for tumor model P388 Leukemia (intraperitoneal) in CD2F1 (CDF1) mice
Conditions: endpoint: median survival time, higher = longer survival
Outline: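 Mice carrying the transplanted tumor received test compound or vehicle. Survival was recorded in each group, and the value is the treated-group measurement divided by that of the vehicle-treated control group.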

[1] = dose: 60.0 mg/kg/injection, schedule: Q01DX005 (ip), vehicle: saline with Tween-80
[2] = dose: 120.0 mg/kg/injection, schedule: Q01DX005 (ip), vehicle: saline with Tween-80
[3] = dose: 240.0 mg/kg/injection, schedule: Q01DX005 (ip), vehicle: saline with Tween-80
[4] = dose: 50.0 mg/kg/injection, schedule: Q01DX005 (ip), vehicle: saline
[5] = dose: 50.0 mg/kg/injection, schedule: Q01DX005 (ip), vehicle: saline with Tween-80
[6] = dose: 100.0 mg/kg/injection, schedule: Q01DX005 (ip), vehicle: saline with Tween-80
[7] = dose: 200.0 mg/kg/injection, schedule: Q01DX005 (ip), vehicle: saline with Tween-80
[8] = dose: 100.0 mg/kg/injection, schedule: Q01DX009 (ip), vehicle: saline with Tween-80
[9] = dose: 100.0 mg/kg/injection, schedule: Q04DX003 (ip), vehicle: saline with Tween-80
[10] = dose: 200.0 mg/kg/injection, schedule: Q01DX009 (ip), vehicle: saline with Tween-80
[11] = dose: 200.0 mg/kg/injection, schedule: Q04DX003 (ip), vehicle: saline with Tween-80
[12] = dose: 400.0 mg/kg/injection, schedule: Q04DX003 (ip), vehicle: saline with Tween-80
[13] = dose: 50.0 mg/kg/injection, schedule: Q01DX009 (ip), vehicle: saline with Tween-80
[14] = dose: 12.5 mg/kg/injection, schedule: Q01DX009 (ip), vehicle: distilled water + Tween-80
[15] = dose: 25.0 mg/kg/injection, schedule: Q01DX009 (ip), vehicle: distilled water + Tween-80
[16] = dose: 50.0 mg/kg/injection, schedule: Q01DX009 (ip), vehicle: distilled water + Tween-80
[17] = dose: 100.0 mg/kg/injection, schedule: Q01DX009 (ip), vehicle: distilled water + Tween-80
[18] = dose: 200.0 mg/kg/injection, schedule: Q01DX009 (ip), vehicle: distilled water + Tween-80
[19] = dose: 12.5 mg/kg/injection, schedule: Q01DX009 (ip), vehicle: saline with Tween-80
[20] = dose: 25.0 mg/kg/injection, schedule: Q01DX009 (ip), vehicle: saline with Tween-80
[21] = dose: 50.0 mg/kg/injection, schedule: Q01DX009 (ip), vehicle: Klucel (hydroxypropylcellulose) (HPC)
[22] = dose: 100.0 mg/kg/injection, schedule: Q01DX009 (ip), vehicle: Klucel (hydroxypropylcellulose) (HPC)
[23] = dose: 200.0 mg/kg/injection, schedule: Q01DX009 (ip), vehicle: Klucel (hydroxypropylcellulose) (HPC)

Measured: T/C

CCN(CC)CCCC(C)NC(=O)c1ccc2c(c1O)C(=O)c1ccccc1C2=O (configuration not stated)
inactive: dose: 1.25 mg/kg/injection, schedule: Q01DX009 (ip), vehicle: water 100 % of control and 102 % of control | dose: 2.5 mg/kg/injection, schedule: Q01DX009 (ip), vehicle: water 101 % of control and 105 % of control | dose: 5.0 mg/kg/injection, schedule: Q01DX009 (ip), vehicle: water 106 % of control and 108 % of control | dose: 10.0 mg/kg/injection, schedule: Q01DX009 (ip), vehicle: water 99 % of control and 101 % of control and 94 % of control | dose: 20.0 mg/kg/injection, schedule: Q01DX009 (ip), vehicle: water 99 % of control and 101 % of control

CC1C=Cc2ccccc2NC1C (configuration not stated)
inactive: [1] 101 % of control | [2] 102 % of control | [3] 97 % of control

CC1(C)OC2(C)CCC1C1C2N1C(=O)c1ccccc1 (configuration not stated)
inactive: dose: 50.0 mg/kg/injection, schedule: Q01DX005 (ip), vehicle: Klucel (hydroxypropylcellulose) (HPC) 94 % of control | dose: 100.0 mg/kg/injection, schedule: Q01DX005 (ip), vehicle: Klucel (hydroxypropylcellulose) (HPC) 102 % of control | dose: 200.0 mg/kg/injection, schedule: Q01DX005 (ip), vehicle: Klucel (hydroxypropylcellulose) (HPC) 102 % of control

CCOC(=N)N1[C@H](C)[C@@H]1C
inactive: dose: 12.5 mg/kg/injection, schedule: Q01DX005 (ip), vehicle: Klucel (hydroxypropylcellulose) (HPC) 109 % of control | dose: 25.0 mg/kg/injection, schedule: Q01DX005 (ip), vehicle: Klucel (hydroxypropylcellulose) (HPC) 124 % of control | [4] 86 % of control

COc1ccccc1OCC(O)CNc1ccc(Cl)cc1C(=O)c1ccccc1Cl (configuration not stated)
inactive: [5] 90 % of control | [6] 90 % of control | [7] 88 % of control

CCCCCNC(=O)C(O)C(O)C(=O)NCCCCC (configuration not stated)
inactive: [5] 104 % of control | [6] 101 % of control | [7] 90 % of control

O=C1NC(=O)C(Cc2ccccc2)(Cc2ccccc2)C(=O)N1
inactive: [8] 90 % of control | [9] 110 % of control | [10] 95 % of control | [11] 100 % of control | dose: 400.0 mg/kg/injection, schedule: Q01DX009 (ip), vehicle: saline with Tween-80 95 % of control | [12] 110 % of control

O=C1CCSC(=S)N1c1ccc(F)cc1
inactive: dose: 50.0 mg/kg/injection, schedule: Q01DX009 (ip), vehicle: suspension in saline 99 % of control | dose: 100.0 mg/kg/injection, schedule: Q01DX009 (ip), vehicle: suspension in saline 106 % of control | dose: 200.0 mg/kg/injection, schedule: Q01DX009 (ip), vehicle: suspension in saline 90 % of control

Nc1c(CNCc2nnn(Cc3ccccc3)c2N)nnn1Cc1ccccc1
inactive: [13] 96 % of control | [8] 93 % of control | [10] 93 % of control

OCN(CO)c1nc(CCC(Cl)(Cl)Cl)nc(N(CO)CO)n1
inactive: [14] 96 % of control | [15] 99 % of control | [16] 114 % of control | [17] 116 % of control | [18] 89 % of control

CNC1NC(=O)c2ccccc2N1Cc1ccc(F)cc1 (configuration not stated)
inactive: dose: 60.0 mg/kg/injection, schedule: Q01DX005 (ip), vehicle: Klucel (hydroxypropylcellulose) (HPC) 94 % of control | dose: 120.0 mg/kg/injection, schedule: Q01DX005 (ip), vehicle: Klucel (hydroxypropylcellulose) (HPC) 92 % of control | dose: 240.0 mg/kg/injection, schedule: Q01DX005 (ip), vehicle: Klucel (hydroxypropylcellulose) (HPC) 94 % of control

C[n+]1ccccc1-c1ccc[n+](CCCC[n+]2cccc(-c3cccc[n+]3C)c2)c1
inactive: [1] 106 % of control | [2] 116 % of control

O=C(NCc1ccccc1)C1C(=O)N(Cc2ccccc2)C(=O)/C1=N/O (configuration not stated)
inactive: [5] 100 % of control | [6] 100 % of control | [7] 100 % of control

C[As](C)SCC1OC(n2cnc3c(N)ncnc32)C2OC(C)(C)OC12 (configuration not stated)
inactive: [14] 101 % of control | [15] 100 % of control | [16] 110 % of control | [17] 110 % of control | [18] 101 % of control

Cc1cc(NCCCN(C)C)c2ccc3c(ccc4c(NCCCN(C)C)cc(C)nc43)c2n1
inactive: [19] 98 % of control | [20] 118 % of control

O=[N+]([O-])c1ccc(Cl)nc1
inactive: dose: 22.0 mg/kg/injection, schedule: Q01DX009 (ip), vehicle: saline with Tween-80 103 % of control | dose: 33.0 mg/kg/injection, schedule: Q01DX009 (ip), vehicle: saline with Tween-80 97 % of control | [13] 91 % of control | dose: 75.0 mg/kg/injection, schedule: Q01DX009 (ip), vehicle: saline with Tween-80 99 % of control | dose: 100.0 mg/kg/injection, schedule: Q04DX003 (ip), vehicle: saline sonified 100 % of control | dose: 200.0 mg/kg/injection, schedule: Q04DX003 (ip), vehicle: saline sonified 95 % of control | dose: 400.0 mg/kg/injection, schedule: Q04DX003 (ip), vehicle: saline sonified 90 % of control

CC(=O)C(N=Nc1ccc(S(=O)(=O)Nc2ncccn2)cc1)C(C)=O
inactive: [9] 92 % of control | [11] 88 % of control | [12] 90 % of control

CN(C)CCSC1=Nc2ccc(Cl)cc2C(c2ccccc2Cl)=NC1
inactive: [1] 98 % of control | dose: 60.0 mg/kg/injection, schedule: Q01DX005 (ip), vehicle: saline 99 % of control | [2] 101 % of control | dose: 120.0 mg/kg/injection, schedule: Q01DX005 (ip), vehicle: saline 104 % of control | [3] 105 % of control | dose: 240.0 mg/kg/injection, schedule: Q01DX005 (ip), vehicle: saline 98 % of control

CCCCCCCCCCCCC1=C(O)C(=O)C=C(O)C1=O
inactive: dose: 12.5 mg/kg/injection, schedule: Q01DX005 (ip), vehicle: suspension in saline 102 % of control | dose: 25.0 mg/kg/injection, schedule: Q01DX005 (ip), vehicle: suspension in saline 108 % of control | [4] 99 % of control | dose: 50.0 mg/kg/injection, schedule: Q01DX005 (ip), vehicle: suspension in saline 112 % of control

CCCCCCCCCCCCCCCCCC[N+]1(CCCC)CCOCC1
inactive: [19] 102 % of control | [20] 108 % of control | [13] 101 % of control and 114 % of control

CCN(CC)C(=S)N/N=C(\C)c1ccccn1
inactive: dose: 6.25 mg/kg/injection, schedule: Q01DX009 (ip), vehicle: saline with Tween-80 106 % of control | [19] 89 % of control

O=C(Nc1ccccc1)N1CCOCC1
inactive: [1] 106 % of control | [2] 103 % of control | [3] 95 % of control

CC1N2CCc3ccccc3C2C2c3ccccc3CCN21 (configuration not stated)
inactive: dose: 12.5 mg/kg/injection, schedule: Q01DX001 (ip), vehicle: suspension in saline 111 % of control | dose: 25.0 mg/kg/injection, schedule: Q01DX001 (ip), vehicle: suspension in saline 111 % of control | dose: 50.0 mg/kg/injection, schedule: Q01DX001 (ip), vehicle: suspension in saline 102 % of control and 118 % of control

O=[N+]([O-])c1cn[n+]([O-])c2ccccc12
inactive: [19] 119 % of control | [13] 86 % of control

CC(C)(C)COSc1ccccc1
inactive: [9] 106 % of control

CCn1c2ccccc2c2cc(NS(=O)(=O)c3ccccc3)ccc21
inactive: [21] 103 % of control | [22] 103 % of control | [23] 100 % of control

CNC(=S)/C(C(C)=O)=C(\C)Nc1ccccc1
inactive: [21] 101 % of control | [22] 106 % of control | [23] 106 % of control

— PubChem BioAssay AID330 (DTP/NCI, 2004)
